Assays:
Type in all cases: in vivo
HFD-fed C57BL6/J mice = experiment: Indirect calorimetry (CLAMS) in HFD-fed mice; conditions: for respiratory exchange ratio (RER): HFD-fed mice (FIGS. 22A, 22B); for energy expenditure (oxygen consumption, VO2): HFD-fed mice, 8 weeks after initiation of treatment (FIGS. 20A, 20B)
Method: Mice in different treatment groups were administered (i) urolithin A mixed with food (food admix) to reach a dosing of 55 mg/kg body weight/day (mkd); (ii) ellagic acid mixed with food (food admix) to reach a dosing of 75 mkd; (iii) punicalagin (gavage) to reach a dosing of 90 mkd; or (iv) pomegranate extract (PE) (gavage) to reach a dosing of 140 mkd of total polyphenols. […] For animals treated by gavage, gavage was performed daily (7 days/week) between 8:00 and 10:00 a.m.; compounds were mixed with saline solution (0.9% NaCl) and provided at a final volume of 5 mL/kg of body weight.

[1] = test system: C57BL6/J mice fed standard chow diet; experiment: Body composition (EchoMRI) in standard chow diet fed mice; conditions: 2 weeks of treatment, ellagic acid 75 mkd; for percentage of lean mass (EchoMRI): urolithin A 55 mkd food admix (FIG. 18A); for percentage of fat mass (EchoMRI): urolithin A 55 mkd food admix (FIG. 18B)
From the text: Male C57BL6/J mice were purchased from Charles River Laboratory (L'Arbresle, France) at the age of 7 weeks and acclimatized to the animal facility for 2 weeks before initiation of experiments. Mice were housed in groups of 5 in standard housing conditions, with a 12 hr light-dark cycle and free access to food and water. Beginning at 9 weeks of age, mice were fed a high-fat diet (HFD) (60% kcal from fat; D12492; Research Diets Inc., New Brunswick, N.J., USA) for fourteen weeks. Body weight was monitored weekly.
(§1) Mice in different treatment groups were administered (i) urolithin A mixed with food (food admix) to reach a dosing of 55 mg/kg body weight/day (mkd); (ii) ellagic acid mixed with food (food admix) to reach a dosing of 75 mkd; (iii) punicalagin (gavage) to reach a dosing of 90 mkd; or (iv) pomegranate extract (PE) (gavage) to reach a dosing of 140 mkd of total polyphenols. A typical pomegranate extract used in these experiments had the following composition: polyphenols, 140 mkd; punicalagin, 13.1 mkd; and ellagic acid, 13.2 mkd. For animals treated by gavage, gavage was performed daily (7 days/week) between 8:00 and 10:00 a.m.; compounds were mixed with saline solution (0.9% NaCl) and provided at a final volume of 5 mL/kg of body weight. Mice in high-fat control groups were fed with the same diet as the experimental animals. Mice in corresponding different control groups were administered either high-fat diet alone or high-fat diet plus daily gavage with vehicle (saline). Another control group of mice were fed standard chow diet alone.
Body composition was monitored by EchoMRI (Echo Medical Systems, Houston, Tex., USA) 5 weeks after the initiation of the treatment for high-fat diet fed mice and 2 weeks after the initiation of the treatment for chow diet fed mice. Animals were placed individually into a plastic cylinder and then introduced into an EchoMRI system for about 2 min for body composition scanning (lean and fat mass).

[2] = test system: C57BL6/J mice fed standard chow diet; experiment: Indirect calorimetry (CLAMS) in standard chow diet fed mice; conditions: for respiratory exchange ratio (RER): chow diet fed mice (FIGS. 21A, 21B); for energy expenditure (oxygen consumption, VO2): standard chow-fed mice, 2 weeks of treatment (FIGS. 19A, 19B)
Method: as §1
Male C57BL6/J mice were grouped and treated as described in Example 7. In addition, however, basal energy expenditure of mice was measured by indirect calorimetry oxygen consumption, carbon dioxide production, and respiratory exchange ratio), 8 weeks after the initiation of treatment for the HFD-fed mice and 2 weeks after the initiation of treatment for standard show diet-fed mice, using the Comprehensive Laboratory Animal Monitoring System (CLAMS; Columbus Instruments, Columbus, Ohio, USA). Animals were first acclimatized for 22 h to CLAMS cages (room temperature 22° C.±1° C.) starting between 11 to 12 am. Then measurement was performed for at least 20 h in the same condition. Measurement included an entire dark cycle. Parameters measured during CLAMS were the following: (i) Oxygen consumption (VO2 in mL/kg/h): VO2 is directly correlated to energy expenditure; (ii) Carbon dioxide production (VCO2 in mL/kg/h); and (iii) Respiratory Exchange Ratio (RER): VCO2/VO2: RER is an indicator of the use of energy substrate. In a steady state, RER is equivalent to the Respiratory Quotient (RQ). Pure carbohydrate use gives RER=1, whereas pure fat burning yields an RER=0.7. A mixed diet gives a RER=0.85.
As stated above, in addition to oxygen consumption, indirect calorimetry also monitors carbon dioxide production. The ratio between carbon dioxide production (VCO2) and oxygen consumption (VO2) is called Respiratory Exchange Ratio (RER). RER is an excellent indicator of the use of energy substrates. In a steady state, RER is equivalent to the Respiratory Quotient (RQ). […]

[3] = test system: C57BL/6J mice exposed to chronic unpredictable stress; experiment: Morris water maze in chronically stressed mice; conditions: 25 mg/kg/d (FIG. 34)
Method: Three weeks before the initiation of the chronic stress protocol mice were separated into four different groups. One group received standard mouse chow diet (Control), while the remaining three groups received varying doses of extract 1011, an extract derived from pomegranate juice. Low dose corresponded to an extract dose of 21 mg/kg/d of gallic acid equivalents of polyphenols (GAE PPE), the medium dose corresponded to an extract dose of 43 mg/kg/d of GAE PPE, the high dose corresponded to an extract dose of 86 mg/kg/d of GAE PPE (see Table 5).
Three weeks before the initiation of the chronic stress protocol, mice were separated into two groups. […]
The unpredictable chronic stress protocol involved exposing animals to a daily stressful situation at an unpredictable moment for 4 weeks (between 8 am and 4 pm, and randomly distributed over the 28 days). […] All animals were weighed and the state of their coat was evaluated on a regular basis (every 3-5 days). […]
Each trial started by introducing the mouse into the maze with the aid of a cup, facing the pool wall, and at one of four possible positions that were randomly balanced between trials and days. The distance between the mouse and the platform was measured at each sampling time, with 25 sampling times collected per second. […]

| SMILES | respiratory exchange ratio (RER) (HFD-fed C57BL6/J mice) | energy expenditure (oxygen consumption, VO2) (HFD-fed C57BL6/J mice) | percentage of lean mass (EchoMRI) [1] | percentage of fat mass (EchoMRI) [1] | respiratory exchange ratio (RER) [2] | energy expenditure (oxygen consumption, VO2) [2] | Morris water maze learning, variability of distance to platform between sequential trials [3] |
| --- | --- | --- | --- | --- | --- | --- | --- |
| O=C1O[C@H]2[C@@H]3OC(=O)c4cc(O)c(O)c(O)c4-c4c(O)c(O)c5oc(=O)c6c(c(O)c(O)c7oc(=O)c4c5c76)-c4c(cc(O)c(O)c4O)C(=O)OC[C@H]3OC(O)[C@@H]2OC(=O)c2cc(O)c(O)c(O)c2-c2c1cc(O)c(O)c2O (mixture of isomers) [punicalagin, 2,3 hexahydroxydiphenoyl-4,6-gallagylglucose] | significantly decreased RER | increased energy expenditure |  |  |  |  |  |
| O=c1oc2c(O)c(O)cc3c(=O)oc4c(O)c(O)cc1c4c23 [ellagic acid] |  |  | statistically significant increase in the percentage of lean mass | reduction in fat mass | significantly decreased RER | increased energy expenditure |  |
| O=c1oc2cc(O)ccc2c2ccc(O)cc12 [urolithin A, 3,8-Dihydroxydibenzo-α-pyrone] | significantly decreased RER | increased energy expenditure | statistically significant increase in the percentage of lean mass | reduction in fat mass | significantly decreased RER | increased energy expenditure | stabilization of this variability |

From US11234960B2, “Compositions and methods for improving mitochondrial function and treating neurodegenerative diseases and cognitive disorders” (Amazentis SA, priority 2010, dated 2022)
